In article PMC10046377, “Inhibitors of the Oncogenic PA2G4-MYCN Protein-Protein Interface” (Cancers, 2023):

Molecular target: T1, PA2G4 protein (Homo sapiens, UniProt Q9UQ80)
T1 sequence (Q9UQ80 1-394): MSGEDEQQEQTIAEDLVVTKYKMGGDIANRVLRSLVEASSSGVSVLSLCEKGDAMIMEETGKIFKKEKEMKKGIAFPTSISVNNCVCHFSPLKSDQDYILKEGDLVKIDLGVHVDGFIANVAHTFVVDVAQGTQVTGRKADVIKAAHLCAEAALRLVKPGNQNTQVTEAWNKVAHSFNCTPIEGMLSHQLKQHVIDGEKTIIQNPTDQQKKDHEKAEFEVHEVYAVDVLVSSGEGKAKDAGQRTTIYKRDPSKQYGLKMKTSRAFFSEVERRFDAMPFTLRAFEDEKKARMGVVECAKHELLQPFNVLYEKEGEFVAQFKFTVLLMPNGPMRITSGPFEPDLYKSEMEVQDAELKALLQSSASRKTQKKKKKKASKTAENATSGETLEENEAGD
Assay: Surface plasmon resonance binding to recombinant PA2G4
Set-up: PA2G4 protein construct was ordered from GenScript (Piscataway, NJ, USA) and cloned into a pET22b vector; host or cells: BL21 (DE3) E. coli
Conditions: SPR
Experimental: PA2G4 protein construct was ordered from GenScript (Piscataway, NJ, USA) and cloned into a pET22b vector. The construct was expressed in BL21 (DE3) E. coli, which was transformed by adding 2 μL of DNA, as per the Addgene Bacterial Transformation Protocol (Addgene, Cambridge, MA, USA). A total of 250 μL of transformed cells were grown in Luria-Bertani (LB) agar, containing 100 μg/mL of ampicillin, overnight at 37 °C. Starting cultures were created by inoculating 100 mL of LB with several bacterial culture colonies, followed by an overnight shaking incubation at 125 rpm and 37 °C. The overnight culture was added (10 mL/L) to 2 L flasks of LB and incubated at 125 rpm and 37 °C until log phase growth was reached (OD600 = 0.6). Following incubation, the cell line was centrifuged at 4200 rpm for 30 min in 1 L bottles. The cell pellet was then resuspended in 25 mL of phosphate-buffered saline (PBS) and centrifuged again at 4200 rpm for 30 min.
Cell pellets were resuspended in 25 mL of Ni-IMAC buffer A (100 mM Tris (pH 8.0), 0.5 M NaCl, 1 mM TCEP), filtered through 22–25 μm Miracloth, and placed on ice. Filtered cells were lysed using the EmulsiFlex-C5 High-Pressure homogenizer (Avestin, Ottawa, ON, Canada), followed by high-speed centrifugation at 18,000 rpm for 20 min. The supernatant, containing the soluble cell lysate, was loaded onto a 5 mL His-Trap column (GE Healthcare Life Sciences, Buckinghamshire, UK) equilibrated in Ni-IMAC buffer A. An incremental gradient of Ni-IMAC buffer B (100 mM Tris pH 8.0, 0.5 M NaCl, 1 mM TCEP, and 1 M imidazole) was introduced. Eluted fractions were analysed by SDS-PAGE and pooled accordingly. Each protein sample was then loaded onto a HiPrep 26/10 Desalting column (GE Healthcare Life Sciences, Buckinghamshire, UK) and equilibrated into anion exchange buffer A (100 mM Tris pH 8.0, 50 mM NaCl, 1 mM TCEP). Samples were loaded onto the column and eluted fractions were analysed by SDS-PAGE and pooled accordingly.
Protein was loaded onto a 5 mL HiTrap Q (Sephrose-Q) anion exchange column (GE Healthcare Life Sciences, Buckinghamshire, UK) and equilibrated in anion exchange buffer A. Samples were loaded, eluted in the flow-through, and analysed using SDS-PAGE. Samples were pooled and concentrated using 10 kDa MWCO Ultra-4 centrifugal filters (Merck, Macquarie Park, NSW, Australia) and intermittent centrifugation at 4000 rpm. Protein samples were then purified using Size Exclusion Chromatography (SEC). Each sample was concentrated to […] using MWCO Ultra-4 centrifugal filters, then loaded onto a Superdex 75 16/60 SEC column (GE Healthcare Life Sciences, Buckinghamshire, UK) and equilibrated in SEC buffer (25 mM Hepes pH 7.7, 100 mM NaCl, 1 mM TCEP). Samples were eluted, analysed by SDS-PAGE, and concentrated to 10 mg/mL using 10 kDa MWCO Ultra-4 centrifugal filters, with intermitted centrifugation at 4000 rpm.
Recombinant PA2G4 was buffer exchanged into PBS buffer using an overnight dialysis at 4 °C. Protein was concentrated to 0.5 mg/mL and incubated for 3 h on ice with a 20:1 molar excess of EZ-Link Sulfo-NHS-LC-Biotin (Thermo Scientific, Melbourne, VIC, Australia). Biotinylated protein samples were isolated from excess biotin using a Superdex 200 10/300 SEC column (GE Healthcare Life Sciences, Buckinghamshire, UK). All SPR experiments were performed on a Biacore T200 instrument (GE Healthcare Life Sciences, Uppsala, Sweden), at 25 °C, in the presence of HEPES Buffered Saline (HBS) (20 mM […] (pH 7.5) 137 mM NaCl, 2.7 mM KCl, and 0.05% Tween 20). Streptavidin was coupled to a CM5 chip (GE Healthcare Life Sciences, Buckinghamshire, UK) using amine coupling. Biotinylated protein samples were then capture-coupled to the streptavidin, with flow cell 1 blocked as a reference.
Compounds were dissolved in 100% DMSO and diluted to 10 mM. […]

[1] = Biacore T200, 25 °C, biotinylated PA2G4

SMILES | Kd [1] [µM] | Kd (recombinant PA2G4) [µM]
Cc1cccc(Oc2cc(N3CCC(C(=O)NCc4cccc(C(F)(F)F)c4)CC3)ncn2)c1C [#3567] | 14.9 | 14.9
Cc1cccc(Oc2cc(N3CCC(C(=O)NCc4cccc(Br)c4)CC3)ncn2)c1C [#5333] | 10.8 | 10.8
Cc1cccc(Oc2cc(N3CCC(C(=O)N[C@@H](C)CCc4ccccc4)CC3)ncn2)c1C [#5338] | 13.5 | 13.5
